Laboratory results as given in article PMC9944328 (Nature Communications, 2023).
Where two headings read alike, the source gives them in different places.

Tested on: SSTR2 mutants
Assay: SSTRs Gi-mediated cAMP inhibition, GloSensor, HEK293, 5 μM forskolin, 15 min room temperature (SSTR2 mutants)
Assay type: cell-based, human
Set-up: Best-fit Bottom, cAMP inhibition / Best-fit Top, cAMP inhibition / Span, cAMP inhibition / Bottom (best-fit value) / Top (best-fit value) / Span (best-fit value) / Span (best-fit) / Bottom (best-fit) / Top (best-fit) / Best-fit Bottom / Best-fit Top / Best-fit Span / Top / Span: scale not given here
Experimental: The levels of the intracellular 3′, 5′-cyclic AMP (cAMP) were measured by the GloSensor cAMP assay (Promega) as described in the previous studies[28],[41] which has been widely used. The human full-length SSTRs and mutants were cloned into the pcDNA3.1+ vector with a HA signal sequence followed by a Flag tag at the N-terminus. HEK293 cells (ATCC, CRL-1573) were seeded into 6-well microplates at a density of 1.0 × 10^6 cells/well and cultured for 24 h at 37 °C with 5% CO2. Cells were then co-transfected with SSTR wild-type or mutants and GloSensor plasmids. After 24 h of transfection, the cells were dissociated with TrypLE™ Express Enzyme (1X) (Thermo Fisher Scientific) and collected by centrifugation at 500 × g for 5 min. Then the collected cells were suspended in Hank’s balanced salt solution [HBSS (Thermo Fisher Scientific)] supplemented with […] (YEASEN), and then the suspension cells were seeded into 96-well plates with 90 μl/well. After incubating at room temperature for 40 min, 5 μM forskolin and ligands diluted in HBSS were added to each well and the plates were incubated at room temperature for 15 min. […] were measured using the Synergy H1 microplate reader (BioTek) and the data presented are means of at least three independent experiments.

[1] = cAMP inhibition, SSTR2 F127A-1 (run 1)
[2] = cAMP inhibition, SSTR2 F127A-2 (run 2)
[3] = cAMP inhibition, SSTR2 F127A-3 (run 3)
[4] = cAMP inhibition, SSTR2 F208A-1 (run 1)
[5] = cAMP inhibition, SSTR2 F208A-2 (run 2)
[6] = cAMP inhibition, SSTR2 F208A-3 (run 3)
[7] = cAMP inhibition, SSTR2 I130A-1 (run 1)
[8] = cAMP inhibition, SSTR2 I130A-2 (run 2)
[9] = cAMP inhibition, SSTR2 I130A-3 (run 3)
[10] = cAMP inhibition, SSTR2 Y205A-1 (run 1)
[11] = cAMP inhibition, SSTR2 Y205A-2 (run 2)
[12] = cAMP inhibition, SSTR2 Y205A-3 (run 3)
[13] = cAMP inhibition, SSTR2 T194H, run 1
[14] = cAMP inhibition, SSTR2 T194H, run 2
[15] = cAMP inhibition, SSTR2 T194H, run 3
[16] = cAMP inhibition, SSTR2 T194H, run 4
[17] = cAMP inhibition, SSTR2 V103N, run 1
[18] = cAMP inhibition, SSTR2 V103N, run 2
[19] = cAMP inhibition, SSTR2 V103N, run 3
[20] = cAMP inhibition, SSTR2 V103N, run 4

SMILES: C[C@@H](O)[C@@H]1NC(=O)[C@H](CCCCN)NC(=O)[C@@H](Cc2c[nH]c3ccccc23)NC(=O)[C@H](Cc2ccccc2)NC(=O)[C@@H](NC(=O)[C@H](N)Cc2ccccc2)CSSC[C@@H](C(=O)N[C@H](CO)[C@@H](C)O)NC1=O [octreotide]
- Top (best-fit value) (W188A-2, run 2): 109.9
- EC50 (W188A-2, run 2, read-out: EC50 (best-fit value)): 0.0722 nM
- Bottom (best-fit value) (W188A-3, run 3): 3.856
- LogEC50 (best-fit value) (W188A-3, run 3): -9.118
- Span (best-fit value) (W188A-3, run 3): 88.75
- Top (best-fit value) (W188A-3, run 3): 92.61
- EC50 (W188A-3, run 3, read-out: EC50 (best-fit value)): 0.762 nM
- Bottom (best-fit) (W269A-1): -8.692
- LogEC50 (best-fit) (W269A-1): -8.978
- Span (best-fit) (W269A-1): 108.2
- Top (best-fit) (W269A-1): 99.53
- EC50 (W269A-1, read-out: EC50 (best-fit)): 1.05 nM
- Bottom (best-fit) (W269A-2): -48.61
- LogEC50 (best-fit) (W269A-2): -9.361
- Span (best-fit) (W269A-2): 149.9
- Top (best-fit) (W269A-2): 101.3
- EC50 (W269A-2, read-out: EC50 (best-fit)): 0.435 nM
- Bottom (best-fit) (W269A-3): 12.63
- LogEC50 (best-fit) (W269A-3): -8.938
- Span (best-fit) (W269A-3): 80.26
- Top (best-fit) (W269A-3): 92.88
- EC50 (W269A-3, read-out: EC50 (best-fit)): 1.15 nM
- Best-fit Bottom (Y302A-1): -1.091
- Best-fit Span (Y302A-1): 74.2
- Best-fit Top (Y302A-1): 73.11
- LogEC50 (Y302A-1): -6.976
- EC50 (Y302A-1, read-out: EC50): 106 nM
- Best-fit Bottom (Y302A-2): -6.663
- Best-fit Span (Y302A-2): 106.6
- Best-fit Top (Y302A-2): 99.95
- LogEC50 (Y302A-2): -7.6
- EC50 (Y302A-2, read-out: EC50): 25.1 nM
- Best-fit Bottom (Y302A-3): -0.9588
- Best-fit Span (Y302A-3): 65.18
- Best-fit Top (Y302A-3): 64.22
- LogEC50 (Y302A-3): -6.976
- cAMP inhibition potency of mutants (alanine replacement of F208, F272, Y302, Q126, D122 in SSTR2): significantly decreased the cAMP inhibition potency
- Bottom (best-fit value) [1]: 3.745
- LogEC50 (best-fit value) [1]: -9.177
- Span (best-fit value) [1]: 105.4
- Top (best-fit value) [1]: 109.1
- EC50 (cAMP inhibition, SSTR2 F127A-1 (run 1), read-out: EC50 (best-fit value)): 0.665 nM
- Bottom (best-fit value) [2]: 6.147
- LogEC50 (best-fit value) [2]: -8.668
- Span (best-fit value) [2]: 104
- Top (best-fit value) [2]: 110.1
- EC50 (cAMP inhibition, SSTR2 F127A-2 (run 2), read-out: EC50 (best-fit value)): 2.15 nM
- Bottom (best-fit value) [3]: 2.844
- LogEC50 (best-fit value) [3]: -8.526
- Span (best-fit value) [3]: 104.1
- Top (best-fit value) [3]: 107
- EC50 (cAMP inhibition, SSTR2 F127A-3 (run 3), read-out: EC50 (best-fit value)): 2.98 nM
- Bottom (best-fit value) [4]: 10.39
- LogEC50 (best-fit value) [4]: -7.519
- Top (best-fit value) [4]: 89.25
- EC50 (cAMP inhibition, SSTR2 F208A-1 (run 1), read-out: EC50 (best-fit value)): 30.3 nM
- Bottom (best-fit value) [5]: -4.181
- LogEC50 (best-fit value) [5]: -7.462
- Top (best-fit value) [5]: 54.09
- EC50 (cAMP inhibition, SSTR2 F208A-2 (run 2), read-out: EC50 (best-fit value)): 34.6 nM
- Bottom (best-fit value) [6]: 13.21
- LogEC50 (best-fit value) [6]: -7.519
- Top (best-fit value) [6]: 113.5
- Bottom (best-fit value) [7]: 14.54
- LogEC50 (best-fit value) [7]: -8.728
- Span (best-fit value) [7]: 76.49
- Top (best-fit value) [7]: 91.02
- EC50 (cAMP inhibition, SSTR2 I130A-1 (run 1), read-out: EC50 (best-fit value)): 1.87 nM
- Bottom (best-fit value) [8]: 3.27
- LogEC50 (best-fit value) [8]: -7.739
- Span (best-fit value) [8]: 103.8
- Top (best-fit value) [8]: 107
- EC50 (cAMP inhibition, SSTR2 I130A-2 (run 2), read-out: EC50 (best-fit value)): 18.2 nM
- Bottom (best-fit value) [9]: 1.85
- LogEC50 (best-fit value) [9]: -7.833
- Span (best-fit value) [9]: 103.6
- Top (best-fit value) [9]: 105.4
- EC50 (cAMP inhibition, SSTR2 I130A-3 (run 3), read-out: EC50 (best-fit value)): 14.7 nM
- Bottom (best-fit value) [10]: -15.61
- LogEC50 (best-fit value) [10]: -10.22
- Span (best-fit value) [10]: 114
- Top (best-fit value) [10]: 98.43
- EC50 (cAMP inhibition, SSTR2 Y205A-1 (run 1), read-out: EC50 (best-fit value)): 0.0606 nM
- Bottom (best-fit value) [11]: -21.77
- LogEC50 (best-fit value) [11]: -10.31
- Span (best-fit value) [11]: 99.08
- Top (best-fit value) [11]: 77.31
- EC50 (cAMP inhibition, SSTR2 Y205A-2 (run 2), read-out: EC50 (best-fit value)): 0.0488 nM
- Bottom (best-fit value) [12]: 1.644
- LogEC50 (best-fit value) [12]: -9.761
- Span (best-fit value) [12]: 161.4
- Top (best-fit value) [12]: 163
- EC50 (cAMP inhibition, SSTR2 Y205A-3 (run 3), read-out: EC50 (best-fit value)): 0.173 nM
- LogEC50 (best-fit) [13]: -7.55
- Top (best-fit) [13]: 86.06
- EC50 (cAMP inhibition, SSTR2 T194H, run 1, read-out: EC50 (best-fit)): 28.2 nM
- LogEC50 (best-fit) [14]: -7.55
- Top (best-fit) [14]: 86.06
- EC50 (cAMP inhibition, SSTR2 T194H, run 2, read-out: EC50 (best-fit)): 28.2 nM
- LogEC50 (best-fit) [15]: -7.274
- Top (best-fit) [15]: 99.32
- EC50 (cAMP inhibition, SSTR2 T194H, run 3, read-out: EC50 (best-fit)): 53.2 nM
- LogEC50 (best-fit) [16]: -7.828
- Top (best-fit) [16]: 111.2
- EC50 (cAMP inhibition, SSTR2 T194H, run 4, read-out: EC50 (best-fit)): 14.9 nM
- LogEC50 (best-fit) [17]: -9.644
- Top (best-fit) [17]: 94
- EC50 (cAMP inhibition, SSTR2 V103N, run 1, read-out: EC50 (best-fit)): 0.227 nM
- LogEC50 (best-fit) [18]: -9.644
- Top (best-fit) [18]: 94
- EC50 (cAMP inhibition, SSTR2 V103N, run 2, read-out: EC50 (best-fit)): 0.227 nM
- LogEC50 (best-fit) [19]: -9.75
- Top (best-fit) [19]: 93.06
- EC50 (cAMP inhibition, SSTR2 V103N, run 3, read-out: EC50 (best-fit)): 0.178 nM
- LogEC50 (best-fit) [20]: -9.608
- Top (best-fit) [20]: 108.8
- EC50 (cAMP inhibition, SSTR2 V103N, run 4, read-out: EC50 (best-fit)): 0.247 nM
